Calls of active or inactive are those of the source.
Tests used:
[1] = NIH-3T3 fibroblast cytotoxicity, dose response, cytotoxicity control, cell-based, fluorescence, Alamar Blue, secondary assay (AID 2327); type: functional;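 note: NIH-3T3 mouse fibroblasts cultured with fluconazole at 8 µg/mL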
[2] = test system: Streptococcus sp. 'group A'; assay: growth inhibition of control SK(-) GAS strain, dose response, counter-screen for streptokinase expression inhibitor project, luminescence, kanamycin, BacTiterGlo, confirmation (AID 1900); type: functional, organism-based
[3] = C. albicans growth with fluconazole, confirmation, fluorescence, retest (AID 2467); type: functional, cell-based
[4] = Luminescence-based counterscreen assay for KLF5 inhibitors: dose response cell-based high throughput screening assay to identify cytotoxic compounds using the IEC-6 intestinal epithelial cell line. [Related pubchem assays: 1700 (Primary screen.), 1834 (Confirmation screen.), 1858 (Summary AID.), 1905 (Counterscreen.)]; type: functional
[5] = molecular target: T1, Serine/threonine-protein phosphatase (Candida dubliniensis (strain CD36 / CBS 7987 / NCPF 3949 / NRRLY-17841) (Yeast), UniProt B9W6M3); assay: calcineurin pathway inhibitors in yeast reporter, dose response, S. cerevisiae, CDRE-lacZ, luminescence, secondary (AID 2388); type: functional, cell-based;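 note: yeast reporter cells carrying a calcineurin-responsive lacZ construct stimulated with calcium chloride; luminescent beta-galactosidase reporter signal in whole cells rather than isolated phosphatase activity; potency for inhibition where a drop in reporter signal means calcineurin blockade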
T1 sequence (B9W6M3 whole entry): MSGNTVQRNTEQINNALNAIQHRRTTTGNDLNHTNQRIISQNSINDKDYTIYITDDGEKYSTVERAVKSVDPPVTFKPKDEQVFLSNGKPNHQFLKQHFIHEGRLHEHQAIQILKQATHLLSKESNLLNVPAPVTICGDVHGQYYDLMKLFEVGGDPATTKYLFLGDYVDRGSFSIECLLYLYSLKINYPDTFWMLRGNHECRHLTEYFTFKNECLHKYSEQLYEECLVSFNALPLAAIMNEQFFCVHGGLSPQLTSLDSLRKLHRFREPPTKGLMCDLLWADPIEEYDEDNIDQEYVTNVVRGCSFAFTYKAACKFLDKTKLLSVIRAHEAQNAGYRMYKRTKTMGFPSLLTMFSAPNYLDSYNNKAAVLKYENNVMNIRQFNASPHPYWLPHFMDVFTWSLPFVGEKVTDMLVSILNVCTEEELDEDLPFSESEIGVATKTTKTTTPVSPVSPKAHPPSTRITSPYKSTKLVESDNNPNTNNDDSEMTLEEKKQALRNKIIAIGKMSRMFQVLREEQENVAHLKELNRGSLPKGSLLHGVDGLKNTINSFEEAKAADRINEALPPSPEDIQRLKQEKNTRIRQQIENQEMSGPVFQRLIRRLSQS

[6] = test system: Streptococcus; assay: Group A Streptococcus viability loss, dose response, counter-screen for streptokinase expression inhibitor project, luminescence, BacTiterGlo (AID 1915); type: functional, organism-based;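 note: potency for reduction of bacterial viability or growth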
[7] = molecular target: Nonstructural protein 1 (Influenza A virus, UniProt Q194T2); type: functional, Influenza A virus (A/California/07/2009(H1N1))
[8] = test system: INS1; assay: beta cell apoptosis inhibitors, cytokine rescue, dose response, luminescence, retest (AID 449756); type: functional, cell-based; conditions: Rattus norvegicus;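 note: cell death triggered by IL-1 beta plus TNF-alpha plus IFN-gamma mixture; protective hits raise ATP signal compared with cytokine alone wells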
[9] = molecular target: ATP-dependent molecular chaperone HSP82 (Candida albicans (strain WO-1) (Yeast), UniProt C4YTQ8); assay: loss of DOC-induced GRE-beta-galactosidase reporter signal, dose response, Hsp90 inhibitor project, S. cerevisiae, luminescence (AID 2400); type: functional, cell-based;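 note: beta-galactosidase luminescence from glucocorticoid response element reporter as proxy for Hsp90 function; inhibitor potency where signal loss means Hsp90 inhibition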
[10] = molecular target: Paired box protein Pax-8 (Homo sapiens, UniProt Q06710); assay: inhibitors of PAX8-driven TPO luciferase reporter, dose response, RMG-I cells, cherry-pick (AID 687027); type: functional, cell-based;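 note: luciferase reporter driven by Pax8 target thyroperoxidase promoter measured by SteadyGlo luminescence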
[11] = molecular target: T2, Alkaline phosphatase, tissue-nonspecific isozyme (Homo sapiens, UniProt P05186)
T2 sequence (P05186 whole entry): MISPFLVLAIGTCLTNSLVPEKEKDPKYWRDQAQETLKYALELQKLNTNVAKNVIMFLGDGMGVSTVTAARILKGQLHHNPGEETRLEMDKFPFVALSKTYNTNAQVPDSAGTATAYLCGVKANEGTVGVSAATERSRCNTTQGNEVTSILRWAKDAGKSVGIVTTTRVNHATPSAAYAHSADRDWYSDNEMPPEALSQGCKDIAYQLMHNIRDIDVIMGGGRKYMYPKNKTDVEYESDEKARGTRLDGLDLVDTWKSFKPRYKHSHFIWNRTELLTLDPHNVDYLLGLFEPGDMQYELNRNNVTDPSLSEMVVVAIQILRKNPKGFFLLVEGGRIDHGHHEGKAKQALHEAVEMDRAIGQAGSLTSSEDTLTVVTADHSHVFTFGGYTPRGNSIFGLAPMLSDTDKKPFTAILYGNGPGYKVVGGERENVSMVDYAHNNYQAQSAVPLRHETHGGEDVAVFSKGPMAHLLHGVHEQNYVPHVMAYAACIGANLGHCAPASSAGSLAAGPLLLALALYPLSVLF

[12] = molecular target: T3, Mucolipin-3 (Homo sapiens, UniProt Q8TDD5); assay: Dose response cell-based high-throughput screening assay for agonists of the transient receptor potential channel ML3 (TRPML3). [Related pubchem assays: 1526, 1424, 1448 ]; type: functional
T3 sequence (Q8TDD5 whole entry): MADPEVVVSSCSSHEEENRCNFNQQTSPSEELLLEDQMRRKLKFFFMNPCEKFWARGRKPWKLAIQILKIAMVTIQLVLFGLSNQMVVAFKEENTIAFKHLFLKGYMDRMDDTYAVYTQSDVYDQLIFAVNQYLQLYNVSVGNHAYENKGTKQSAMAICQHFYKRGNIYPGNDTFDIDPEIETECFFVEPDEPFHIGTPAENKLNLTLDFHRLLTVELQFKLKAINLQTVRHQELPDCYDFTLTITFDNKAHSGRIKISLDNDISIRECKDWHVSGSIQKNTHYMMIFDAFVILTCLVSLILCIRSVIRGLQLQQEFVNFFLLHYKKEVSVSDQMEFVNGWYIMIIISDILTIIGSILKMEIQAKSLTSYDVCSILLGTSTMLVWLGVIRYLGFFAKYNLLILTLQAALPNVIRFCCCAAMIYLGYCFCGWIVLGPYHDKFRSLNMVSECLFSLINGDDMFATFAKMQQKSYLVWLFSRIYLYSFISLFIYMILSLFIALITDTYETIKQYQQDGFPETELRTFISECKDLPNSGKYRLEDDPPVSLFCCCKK

[13] = molecular target: Ion channel NompC (Danio rerio, UniProt Q7T1G6); assay: Fluorescence counterscreen assay for TRPML3 agonists: dose response cell-based high-throughput screening assay to identify agonists of the transient receptor potential channel N1 (TRPN1). [Related pubchem assays: 1526, 1424, 1448 ]; type: functional
[14] = molecular target: Hexokinase HKDC1 (Homo sapiens, UniProt Q2TB90); assay: HKDC1 hexokinase inhibitors, dose response, biochemical, W721R variant (AID 504729); type: functional
[15] = inhibitors of intracellular T. cruzi replication, confirmation, NIH3T3 host cells, beta-gal luminescence (AID 2044); type: functional, cell-based;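 note: intracellular parasites grown in NIH/3T3 mouse fibroblasts as host cells; luminescent beta-galactosidase reporter signal from transgenic T. cruzi replicating inside host cells; inhibitors lower the luminescence signal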
[16] = molecular target: T4, Kappa-type opioid receptor (Homo sapiens, UniProt P41145); type: functional
[17] = cytotoxicity toward NIH3T3 fibroblasts, dose response, counter-screen, cell-based, ATP luminescence, mouse fibroblasts (AID 2010); type: functional;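 note: cells exposed to compound for about 90 hours before reading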
[18] = molecular target: Beta-galactosidase (Escherichia coli, UniProt Q8VNN2); type: functional
[19] = molecular target: T4, Kappa-type opioid receptor; type: functional; remark: listed apart in the source

T4 sequence (P41145 whole entry): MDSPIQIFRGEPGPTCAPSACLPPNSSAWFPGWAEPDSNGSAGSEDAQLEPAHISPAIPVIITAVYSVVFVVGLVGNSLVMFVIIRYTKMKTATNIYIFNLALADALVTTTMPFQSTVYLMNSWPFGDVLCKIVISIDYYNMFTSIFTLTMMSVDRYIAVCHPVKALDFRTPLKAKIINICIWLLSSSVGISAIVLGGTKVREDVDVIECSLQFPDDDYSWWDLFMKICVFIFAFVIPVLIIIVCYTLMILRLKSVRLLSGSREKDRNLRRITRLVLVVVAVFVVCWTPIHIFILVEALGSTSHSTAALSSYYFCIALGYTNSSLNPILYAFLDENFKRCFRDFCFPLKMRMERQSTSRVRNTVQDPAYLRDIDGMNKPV
Ion channel NompC, sequence (Q7T1G6 whole entry): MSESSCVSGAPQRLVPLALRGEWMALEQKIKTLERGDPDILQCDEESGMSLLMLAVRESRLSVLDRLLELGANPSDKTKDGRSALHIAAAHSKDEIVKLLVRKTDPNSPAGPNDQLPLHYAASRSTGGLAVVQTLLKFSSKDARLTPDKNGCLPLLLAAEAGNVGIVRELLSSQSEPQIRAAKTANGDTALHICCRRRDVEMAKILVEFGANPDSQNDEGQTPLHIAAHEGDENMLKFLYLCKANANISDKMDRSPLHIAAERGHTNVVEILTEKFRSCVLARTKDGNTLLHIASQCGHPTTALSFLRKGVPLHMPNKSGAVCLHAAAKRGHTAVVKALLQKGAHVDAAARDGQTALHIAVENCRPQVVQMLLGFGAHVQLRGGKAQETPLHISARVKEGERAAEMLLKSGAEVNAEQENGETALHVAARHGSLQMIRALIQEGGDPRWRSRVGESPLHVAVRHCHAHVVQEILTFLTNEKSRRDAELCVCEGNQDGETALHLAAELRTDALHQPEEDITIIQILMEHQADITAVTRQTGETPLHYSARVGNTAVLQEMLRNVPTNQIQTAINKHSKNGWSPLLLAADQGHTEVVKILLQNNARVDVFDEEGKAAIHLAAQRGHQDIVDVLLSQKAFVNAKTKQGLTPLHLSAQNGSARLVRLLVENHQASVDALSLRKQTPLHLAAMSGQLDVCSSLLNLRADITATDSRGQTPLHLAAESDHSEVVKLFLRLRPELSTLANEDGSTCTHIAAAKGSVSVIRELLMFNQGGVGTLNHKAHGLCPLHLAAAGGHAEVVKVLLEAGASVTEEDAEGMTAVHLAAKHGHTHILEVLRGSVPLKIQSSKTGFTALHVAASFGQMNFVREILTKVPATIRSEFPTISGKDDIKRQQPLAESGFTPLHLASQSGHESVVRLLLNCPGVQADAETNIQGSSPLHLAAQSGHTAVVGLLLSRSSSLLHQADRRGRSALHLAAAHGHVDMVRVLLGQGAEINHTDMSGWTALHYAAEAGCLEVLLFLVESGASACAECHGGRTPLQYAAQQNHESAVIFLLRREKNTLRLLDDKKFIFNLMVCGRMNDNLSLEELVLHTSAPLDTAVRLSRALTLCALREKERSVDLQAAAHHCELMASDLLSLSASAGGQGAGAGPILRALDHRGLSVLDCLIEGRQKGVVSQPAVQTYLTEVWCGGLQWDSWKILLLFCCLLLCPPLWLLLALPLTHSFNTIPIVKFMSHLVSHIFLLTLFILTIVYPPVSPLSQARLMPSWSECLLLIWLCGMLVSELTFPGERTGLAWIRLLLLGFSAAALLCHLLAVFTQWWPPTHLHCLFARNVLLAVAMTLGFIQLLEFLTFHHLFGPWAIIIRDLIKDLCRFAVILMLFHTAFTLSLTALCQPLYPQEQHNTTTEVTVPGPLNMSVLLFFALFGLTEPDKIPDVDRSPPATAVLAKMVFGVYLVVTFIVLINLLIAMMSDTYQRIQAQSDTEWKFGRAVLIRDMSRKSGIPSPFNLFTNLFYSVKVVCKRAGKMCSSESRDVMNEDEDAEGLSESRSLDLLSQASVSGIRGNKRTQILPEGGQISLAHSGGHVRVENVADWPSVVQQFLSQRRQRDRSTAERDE
Nonstructural protein 1, sequence (Q194T2 whole entry): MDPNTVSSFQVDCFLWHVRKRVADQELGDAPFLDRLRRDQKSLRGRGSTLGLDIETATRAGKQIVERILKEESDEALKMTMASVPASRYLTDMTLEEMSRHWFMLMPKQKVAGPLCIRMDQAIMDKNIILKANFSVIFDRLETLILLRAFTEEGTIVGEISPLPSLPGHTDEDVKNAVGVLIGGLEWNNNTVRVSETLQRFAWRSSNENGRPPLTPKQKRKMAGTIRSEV
Paired box protein Pax-8, sequence (Q06710 whole entry): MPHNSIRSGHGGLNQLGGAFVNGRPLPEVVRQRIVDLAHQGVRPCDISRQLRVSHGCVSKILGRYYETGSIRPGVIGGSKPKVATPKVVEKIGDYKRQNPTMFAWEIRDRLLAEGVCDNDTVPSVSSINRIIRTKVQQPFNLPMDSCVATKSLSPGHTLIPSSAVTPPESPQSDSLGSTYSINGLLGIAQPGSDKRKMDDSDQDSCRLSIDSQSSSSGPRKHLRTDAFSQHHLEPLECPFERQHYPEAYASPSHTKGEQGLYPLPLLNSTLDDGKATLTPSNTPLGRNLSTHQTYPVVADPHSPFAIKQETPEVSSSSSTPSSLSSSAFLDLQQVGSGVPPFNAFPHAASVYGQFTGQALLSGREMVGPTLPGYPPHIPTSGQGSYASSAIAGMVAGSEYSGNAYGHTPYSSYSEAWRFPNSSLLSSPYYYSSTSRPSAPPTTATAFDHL
ATP-dependent molecular chaperone HSP82, sequence (C4YTQ8 whole entry): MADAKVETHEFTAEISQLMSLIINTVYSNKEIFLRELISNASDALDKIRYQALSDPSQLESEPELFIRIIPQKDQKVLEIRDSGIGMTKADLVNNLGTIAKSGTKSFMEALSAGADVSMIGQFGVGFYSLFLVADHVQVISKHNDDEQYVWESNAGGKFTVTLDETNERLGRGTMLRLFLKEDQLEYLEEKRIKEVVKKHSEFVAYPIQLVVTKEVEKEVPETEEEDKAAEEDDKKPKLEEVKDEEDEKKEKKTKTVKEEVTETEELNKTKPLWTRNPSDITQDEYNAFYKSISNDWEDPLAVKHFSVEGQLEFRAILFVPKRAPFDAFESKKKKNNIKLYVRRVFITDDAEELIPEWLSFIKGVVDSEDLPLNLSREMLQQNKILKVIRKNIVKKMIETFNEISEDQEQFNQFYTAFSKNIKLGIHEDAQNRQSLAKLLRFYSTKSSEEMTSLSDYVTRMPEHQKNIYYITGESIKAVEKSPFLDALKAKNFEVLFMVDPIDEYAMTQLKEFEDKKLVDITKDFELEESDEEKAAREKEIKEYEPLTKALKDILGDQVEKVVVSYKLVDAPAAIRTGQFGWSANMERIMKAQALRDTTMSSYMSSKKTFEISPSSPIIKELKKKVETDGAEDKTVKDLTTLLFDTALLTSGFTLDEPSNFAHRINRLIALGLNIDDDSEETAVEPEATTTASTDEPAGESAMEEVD
Hexokinase HKDC1, sequence (Q2TB90 whole entry): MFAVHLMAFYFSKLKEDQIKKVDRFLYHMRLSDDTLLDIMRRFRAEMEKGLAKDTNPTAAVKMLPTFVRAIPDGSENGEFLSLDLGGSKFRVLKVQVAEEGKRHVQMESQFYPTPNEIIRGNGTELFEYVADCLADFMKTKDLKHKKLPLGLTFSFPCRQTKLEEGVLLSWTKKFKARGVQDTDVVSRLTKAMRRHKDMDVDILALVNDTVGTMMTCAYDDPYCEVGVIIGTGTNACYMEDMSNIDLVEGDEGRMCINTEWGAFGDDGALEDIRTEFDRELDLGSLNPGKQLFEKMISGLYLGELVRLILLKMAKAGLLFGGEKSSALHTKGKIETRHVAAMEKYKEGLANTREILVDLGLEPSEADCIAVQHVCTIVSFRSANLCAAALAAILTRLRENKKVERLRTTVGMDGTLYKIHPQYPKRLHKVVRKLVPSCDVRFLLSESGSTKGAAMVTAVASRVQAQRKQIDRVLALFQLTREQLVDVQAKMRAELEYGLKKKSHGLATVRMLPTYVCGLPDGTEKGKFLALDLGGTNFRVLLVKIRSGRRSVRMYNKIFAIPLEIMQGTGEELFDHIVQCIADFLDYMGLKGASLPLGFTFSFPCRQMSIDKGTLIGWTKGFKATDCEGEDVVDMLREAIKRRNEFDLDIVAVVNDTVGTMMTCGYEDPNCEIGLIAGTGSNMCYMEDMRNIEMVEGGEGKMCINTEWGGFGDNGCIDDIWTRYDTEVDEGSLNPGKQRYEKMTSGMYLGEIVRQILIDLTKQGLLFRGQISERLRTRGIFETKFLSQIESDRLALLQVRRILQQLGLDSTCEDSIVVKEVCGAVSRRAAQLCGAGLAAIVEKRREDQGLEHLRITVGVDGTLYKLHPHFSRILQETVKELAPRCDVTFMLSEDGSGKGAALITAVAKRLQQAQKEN

With CCN(CC)S(=O)(=O)c1cc(OC)ccc1N=Nc1ccc(O)c2ncccc12 the EC50 [1] was 96.3 µM (active), the EC50 [2] was 1.61 µM (active) and the EC50 [3] was 0.524 µM (active). The IC50 [4] was 15.7 µM (not active), the EC50 [5] was > 180 µM (inactive) and the EC50 [6] was 8.84 µM (active). The IC50 [7] was 11.7 µM (active), the AC50 [8] was 2.41 µM (active) and the EC50 [9] was 13.5 µM (active). For the same molecule, the AC50 [10] was 1.27 µM (active).

With Cc1ccc(OCC(=O)Nc2ccc3c(c2)OCCO3)cc1C the EC50 [11] was > 100 µM (not active).

In the case of Cc1ccc(S(=O)(=O)Nc2cc(C(F)(F)F)ccc2N2CCOCC2)c(C)c1, the EC50 [12] is reported as 2.48 µM (active) and the EC50 [13] is reported as > 29.9 µM (not active).

For Cc1cccc(C)c1Nc1nnc(SCc2cn3cccc(C)c3n2)s1, the IC50 [14] was > 80 µM (inactive).

With Cc1ccccc1NC(=O)c1ccc(Nc2c([N+](=O)[O-])cc([N+](=O)[O-])c3ccccc23)cc1 the EC50 [15] was 0.937 µM (active), the IC50 [16] was 9.63 µM (active) and the EC50 [17] was > 60 µM (inconclusive). The EC50 [18] was 11.3 µM (active) and the IC50 [19] was > 32 µM.

Reference: ChEMBL document CHEMBL1201862, “PubChem BioAssay data set” (2004)
